From PubChem BioAssay (NCI)
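Tested at 5 concentrations; 48 h exposure; 96-well plates; endpoints linearly interpolated, else capped at highest concentration. GI50: concentration for 50% inhibition of growth. TGI marks complete inhibition of growth.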

Tests used:
Test in all cases: NCI tumour cell line growth inhibition, 48 h
MOLT-4 leukemia = test system: MOLT-4 leukemia
SW-620 colon = test system: SW-620 colon
UACC-257 melanoma = test system: UACC-257 melanoma
SK-OV-3 ovarian = test system: SK-OV-3 ovarian
MDA-MB-468 breast = test system: MDA-MB-468 breast
SF-268 CNS = test system: SF-268 CNS
BT-549 breast = test system: BT-549 breast
SK-MEL-2 melanoma = test system: SK-MEL-2 melanoma
SR leukemia = test system: SR leukemia
SF-295 CNS = test system: SF-295 CNS
CCRF-CEM leukemia = test system: CCRF-CEM leukemia
OVCAR-5 ovarian = test system: OVCAR-5 ovarian
IGROV1 ovarian = test system: IGROV1 ovarian
MDA-MB-231 breast = test system: MDA-MB-231 breast
KM12 colon = test system: KM12 colon
UO-31 renal = test system: UO-31 renal
M14 melanoma = test system: M14 melanoma
786-0 renal = test system: 786-0 renal
CAKI-1 renal = test system: CAKI-1 renal
MALME-3M melanoma = test system: MALME-3M melanoma
UACC-62 melanoma = test system: UACC-62 melanoma
A549 NSCLC = test system: A549 NSCLC
HT29 colon = test system: HT29 colon
HCC-2998 colon = test system: HCC-2998 colon
NCI-H460 lung = test system: NCI-H460 lung
MCF7 breast = test system: MCF7 breast
K-562 leukemia = test system: K-562 leukemia
HCT-15 colon = test system: HCT-15 colon
HCT-116 colon = test system: HCT-116 colon
SK-MEL-5 melanoma = test system: SK-MEL-5 melanoma
A498 renal = test system: A498 renal
RPMI-8226 leukemia = test system: RPMI-8226 leukemia
NCI-H226 lung = test system: NCI-H226 lung
EKVX NSCLC = test system: EKVX NSCLC
OVCAR-8 ovarian = test system: OVCAR-8 ovarian
COLO 205 colon = test system: COLO 205 colon
HL-60(TB) leukemia = test system: HL-60(TB) leukemia
NCI/ADR-RES ovarian = test system: NCI/ADR-RES ovarian
MDA-MB-435 = test system: MDA-MB-435
SF-539 CNS = test system: SF-539 CNS
NCI-H23 lung = test system: NCI-H23 lung
U251 CNS = test system: U251 CNS
LOX IMVI melanoma = test system: LOX IMVI melanoma
PC-3 prostate = test system: PC-3 prostate
DU-145 prostate = test system: DU-145 prostate
NCI-H522 lung = test system: NCI-H522 lung
SNB-19 CNS = test system: SNB-19 CNS
HS 578T breast = test system: HS 578T breast
TK-10 renal = test system: TK-10 renal
SK-MEL-28 melanoma = test system: SK-MEL-28 melanoma
OVCAR-3 ovarian = test system: OVCAR-3 ovarian
HOP-92 NSCLC = test system: HOP-92 NSCLC
HOP-62 NSCLC = test system: HOP-62 NSCLC
ACHN renal = test system: ACHN renal
SN12C renal = test system: SN12C renal
OVCAR-4 ovarian = test system: OVCAR-4 ovarian
SNB-75 CNS = test system: SNB-75 CNS

Cn1cc(-c2nc(N)nnc2-c2c[nH]c3ccccc23)c2cc(Br)cnc21
GI50 (MOLT-4 leukemia): 50.5 nM | TGI (MOLT-4 leukemia): 19200 nM | GI50 (SW-620 colon): 37.6 nM | TGI (SW-620 colon): 13200 nM | GI50 (UACC-257 melanoma): 42.1 nM | TGI (UACC-257 melanoma): 21800 nM | GI50 (SK-OV-3 ovarian): 48.7 nM | TGI (SK-OV-3 ovarian): 21200 nM | GI50 (MDA-MB-468 breast): 20 nM | TGI (MDA-MB-468 breast): 51.8 nM | GI50 (SF-268 CNS): 340 nM | TGI (SF-268 CNS): 25500 nM | GI50 (BT-549 breast): 29 nM | TGI (BT-549 breast): 5670 nM | GI50 (SK-MEL-2 melanoma): 40.9 nM | TGI (SK-MEL-2 melanoma): 14300 nM | GI50 (SR leukemia): 30.9 nM | TGI (SR leukemia): > 100000 nM | GI50 (SF-295 CNS): 29.4 nM | TGI (SF-295 CNS): 1190 nM | GI50 (CCRF-CEM leukemia): 33.4 nM | TGI (CCRF-CEM leukemia): > 35500 nM | GI50 (OVCAR-5 ovarian): 72.9 nM | TGI (OVCAR-5 ovarian): 15500 nM | GI50 (IGROV1 ovarian): 72.1 nM | TGI (IGROV1 ovarian): 15200 nM | GI50 (MDA-MB-231 breast): 69.7 nM | TGI (MDA-MB-231 breast): 11700 nM | GI50 (KM12 colon): 50.6 nM | TGI (KM12 colon): 13900 nM | GI50 (UO-31 renal): 71.1 nM | TGI (UO-31 renal): 15200 nM | GI50 (M14 melanoma): 52.6 nM | TGI (M14 melanoma): 2060 nM | GI50 (786-0 renal): 53.7 nM | TGI (786-0 renal): 15600 nM | GI50 (CAKI-1 renal): 53.5 nM | TGI (CAKI-1 renal): 17100 nM | GI50 (MALME-3M melanoma): 46.6 nM | TGI (MALME-3M melanoma): 18500 nM | GI50 (UACC-62 melanoma): 29.4 nM | TGI (UACC-62 melanoma): 7680 nM | GI50 (A549 NSCLC): 62.5 nM | TGI (A549 NSCLC): 19300 nM | GI50 (HT29 colon): 34.7 nM | TGI (HT29 colon): 1230 nM | GI50 (HCC-2998 colon): 84.1 nM | TGI (HCC-2998 colon): 3470 nM | GI50 (NCI-H460 lung): 46.2 nM | TGI (NCI-H460 lung): 1350 nM | GI50 (MCF7 breast): 27.5 nM | TGI (MCF7 breast): 10600 nM | GI50 (K-562 leukemia): 35.7 nM | TGI (K-562 leukemia): > 100000 nM | GI50 (HCT-15 colon): 37.6 nM | TGI (HCT-15 colon): 10700 nM | GI50 (HCT-116 colon): 44.1 nM | TGI (HCT-116 colon): 6510 nM | GI50 (SK-MEL-5 melanoma): 30.1 nM | TGI (SK-MEL-5 melanoma): 1190 nM | GI50 (A498 renal): 15600 nM | TGI (A498 renal): 29700 nM | GI50 (RPMI-8226 leukemia): 70.8 nM | TGI (RPMI-8226 leukemia): > 45500 nM | GI50 (NCI-H226 lung): 50.9 nM | TGI (NCI-H226 lung): 2700 nM | GI50 (EKVX NSCLC): 94.9 nM | TGI (EKVX NSCLC): 20700 nM | GI50 (OVCAR-8 ovarian): 63.4 nM | TGI (OVCAR-8 ovarian): 4700 nM | GI50 (COLO 205 colon): 41.4 nM | TGI (COLO 205 colon): 280 nM | GI50 (HL-60(TB) leukemia): 26.5 nM | TGI (HL-60(TB) leukemia): 100 nM | GI50 (NCI/ADR-RES ovarian): 92.4 nM | TGI (NCI/ADR-RES ovarian): 776 nM | GI50 (MDA-MB-435): 16.7 nM | TGI (MDA-MB-435): 52.5 nM | GI50 (SF-539 CNS): 32.3 nM | TGI (SF-539 CNS): 175 nM | GI50 (NCI-H23 lung): 73.8 nM | TGI (NCI-H23 lung): 10400 nM | GI50 (U251 CNS): 40.2 nM | TGI (U251 CNS): 6710 nM | GI50 (LOX IMVI melanoma): 43.5 nM | TGI (LOX IMVI melanoma): 15800 nM | GI50 (PC-3 prostate): 56 nM | TGI (PC-3 prostate): 47900 nM | GI50 (DU-145 prostate): 87.7 nM | TGI (DU-145 prostate): 22400 nM | GI50 (NCI-H522 lung): 12.5 nM | TGI (NCI-H522 lung): 79.7 nM | GI50 (SNB-19 CNS): 63.2 nM | TGI (SNB-19 CNS): 10400 nM | GI50 (HS 578T breast): 31.9 nM | TGI (HS 578T breast): 33700 nM | GI50 (TK-10 renal): 5950 nM | TGI (TK-10 renal): 34200 nM | GI50 (SK-MEL-28 melanoma): 364 nM | TGI (SK-MEL-28 melanoma): 19200 nM | GI50 (OVCAR-3 ovarian): 39 nM | TGI (OVCAR-3 ovarian): 692 nM | GI50 (HOP-92 NSCLC): 3890 nM | TGI (HOP-92 NSCLC): 25500 nM | GI50 (HOP-62 NSCLC): 56.4 nM | TGI (HOP-62 NSCLC): 21200 nM | GI50 (ACHN renal): 74.3 nM | TGI (ACHN renal): 16900 nM | GI50 (SN12C renal): 58.9 nM | TGI (SN12C renal): 14300 nM | GI50 (OVCAR-4 ovarian): 2700 nM | TGI (OVCAR-4 ovarian): 36800 nM | GI50 (SNB-75 CNS): 30.2 nM | TGI (SNB-75 CNS): 18300 nM
